We go through nine compounds from paper PMC7609463 (Frontiers in Pharmacology, 2020).

The term IC50 denotes the concentration at which inhibition is half-maximal. Usually EC50 stands for the concentration at which the effect is half-maximal. Usually inhibition stands for the relative decrease from the control value, in per cent. By Km is commonly meant the concentration of substrate that gives half-maximal velocity.

Entries after “also recorded” stand apart in the source; their conditions may differ. Where two headings read alike, the source gives them in different places.

The target in data set [1] is T1, ZIKV NS2B-NS3 protease (ZIKVpro) (Zika virus, UniProt A0A024B7W1).
T1 construct: The cDNA coding for residues 45–96 of ZIKV NS2B; the N terminus of NS3 (residues 1–177); poly-histidine tag (C); made in house; host or cells: E. coli BL21(DE3), pET28a (NcoI/XhoI)
T1 sequence (A0A024B7W1 1417-1468): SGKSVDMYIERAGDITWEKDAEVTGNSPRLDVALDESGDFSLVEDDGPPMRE
T1 sequence (A0A024B7W1 1503-1679): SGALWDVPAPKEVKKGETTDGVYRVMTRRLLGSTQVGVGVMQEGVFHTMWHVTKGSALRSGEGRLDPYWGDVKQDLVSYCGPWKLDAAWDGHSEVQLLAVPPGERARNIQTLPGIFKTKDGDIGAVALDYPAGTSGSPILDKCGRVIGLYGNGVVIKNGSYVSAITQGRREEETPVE
The experiment in a line: fluorescence-based ZIKVpro protease inhibition screening assay (Bz-nKKR-AMC substrate). The class given is biochemical. As to conditions: for IC50: 150 nM ZIKVpro, 1 h preincubation at 37 °C, 50 μM Bz-nKKR-AMC; for inhibition at 20 µM: read-out: Inhibition Activity% (primary high-throughput screening).
Description: For initial screening, each compound was dissolved in dimethyl sulfoxide (DMSO) to obtain 20 mM stock solution. […] The reaction was started by addition of Bz-nKKR-AMC substrate at 50 µM and fluorescence readings were measured at 30 s intervals over 10 min using Enspire (Perkin Elmer, USA) at excitation wavelength(λex) at 360 nm and emission wavelength(λem) at 460 nm. Assays were carried out as triplicates at 37 °C.
The protease activity of the DMSO control was set as 100%. The protease activities with compounds were set as percentage of the DMSO control. Data was fitted using the log(inhibitor) vs. response - variable slope (four parameters) model within the graphpad prism 7.0 software.
Inhibition activity=100-[S–S0/C−C0]×100%
S: the RFUs of the test sample (enzyme, inhibitor, buffer, and substrate) after 10 min of reaction
S0: the RFUs of the tested samples at time zero.
C: the RFUs of the control (enzyme, buffer, and substrate) after 10 min of reaction
C0: the RFUs of the control at time zero

In data set [2] the target is T2, ZIKV NS2B-NS3 protease (ZIKVpro, gZiPro) (Zika virus, UniProt A0A024B7W1).
T2 construct: The cDNA coding for residues 45–96 of ZIKV NS2B; the N terminus of NS3 (residues 1–177); poly-histidine tag (C); made in house; host or cells: E. coli BL21(DE3), pET28a (NcoI/XhoI)
T2 sequence (A0A024B7W1 1417-1468): as the sequence (A0A024B7W1 1417-1468) above
T2 sequence (A0A024B7W1 1503-1679): as the sequence (A0A024B7W1 1503-1679) above
The experiment in a line: Octet bio-layer interferometry binding assay with biotinylated ZIKVpro (gZiPro). Particulars: for binding to ZIKVpro in Octet assay: compound 50 μM; for Response (Octet binding assay): compound 50 µM, biotinylated ZIKVpro, binding profile as nm shift. Background: Biolayer interferometry detects binding as a change in optical thickness at a sensor tip.
Excerpt: Intermolecular interactions between gZiPro and selected compounds were detected by using BLI technology on the ForteBio Octet Red system (Pall FortéBio, Inc, Menlo Park, USA). The biotinylated protein gZipro was immobilized onto super streptavidin biosensors (Pall FortéBio Inc.), and then blocked with biocytin (Sigma). […] Sensorgrams were double-referenced, corrected for solvent effects, and then fit using OctetRed user software (Pall FortéBio Inc.). The binding profile of each sample was summarized as an “nm shift” (the wavelength or spectral shift in nanometers), which represented the difference between the start and end of the kinetic cycle. Steady-state and kinetic responses were fit to a simple binding model to obtain values for association (Kon) and dissociation (Koff) rate constants and the equilibrium dissociation constant (Kd). The Langmuir’s 1:1 binding model was applied to fit the interferometry data.

Data set [3] deals with ZIKVpro. As to conditions: 2017, read-out: IC50 against ZIKVpro, cited from earlier work.
Data set [4] has as its system ZIKV polyprotein precursor cleavage by ZIKVpro. The experiment in a line: western blot of viral polyprotein precursor processing in ZIKV-infected Vero E6 cells. As to conditions: especially at 6.25 µM. Type of data set: cell-based, Zika virus. On the procedure:
(§1) Vero E6 cells were seeded at a density of 2×10^5 cells per well in 6-well plate. After overnight incubation, 2 µl DMSO (Sigma-Aldrich) or 2 µl chemical compounds were added to each well at the designated concentration. Then cells were infected with ZIKV at MOI of 0.05. Ribavirin and DMSO were used as positive and negative control, respectively. After a further incubation for 72 h at 37°C, cells were lysed with 100 μl of lysis buffer (50mM Tris, 150mM NaCl, 1% NP-40, 0.5% sodium deoxycholate, pH 7.4). Cell lysate was subjected to denaturing gel electrophoresis with 10% Bis-Tris Gel. The proteins were transferred onto PVDF membranes (Millipore, USA) and immunoblotted with indicated antibodies. The following antibodies were used for the detection of proteins: Anti-NS2B antibody (GTX133308, 1:1,000, GeneTex), Anti-NS3 antibody(GTX133320, 1:1,000, GeneTex), Anti-NS4A antibody (GTX133704, 1:1,000, GeneTex), Anti-prM antibody, Anti-β actin antibody (mAbcam 8224, 1:5000, Abcam) was used as a loading control. […]
(§2) Quantification of signals on Western blots was done using the Image pro 10 (Media cybernetics, USA) Imaging and Processing Analysis Software with signaling intensity normalized to loading control. […] Membranes were imaged and quantified in 800 nm channelsin the Odyssey Infrared Imaging System using Odyssey V3.0 software (LI-COR, Lincoln, NE).
Background: A western blot detects proteins with antibodies after separation by electrophoresis.

Data set [5] relates to ZIKV. The data set is described as follows: western blot of viral protein in ZIKV-infected U-87 MG cells. Particulars: dose-dependent. Type of data set: cell-based, Zika virus.
Data set [6] deals with ZIKV. The data set is described as follows: protection of Vero E6 cell viability against ZIKV-induced cytopathic effect (CCK-8). The class given is cell-based, Zika virus. Particulars: Vero E6 cells. How it is done: Cell viability was performed by Cell Counting Kit-8 (CCK-8) (Beyotime, China). Typically, 8×10^4 cells/ml Vero E6 cells were seeded in the wells of 96-well plate at 100 μl/well and grown for 24 h. The compound 1 μl was added to the cells, after which cells were infected with ZIKV at MOI of 0.05. Ribavirin and DMSO were used as positive and negative control, respectively. […] The absorbance at 450 nm was subsequently measured using EnSpire 2300 Multilable Reader (PerkinElmer). The inhibition rate of the tested compounds was calculated with the following equation:
Inhibition rate%=100-[ODtested compound−ODmock−infected cells/ODinfected cells−ODmock−infected cells]×100%
A general note: Protection from cytopathic effect is a common read-out in antiviral testing.

In data set [7] the test system is Vero E6 cells. The data set is described as follows: cytotoxicity in Vero E6 cells (CCK-8). Type of data set: cell-based, African green monkey. Particulars: 0.3125~40 μM.
In data set [8] the test system is ZIKV. The data set is described as follows: qRT-PCR of viral RNA in ZIKV-infected Vero E6 cells. Type of data set: cell-based, Zika virus. As to conditions: dose-dependent. How it is done: To determine the viral RNA number by qRT-PCR, total intracellular RNAs were extracted from the infected cells (control and treated) by treatment with TRIzol reagent (Invitrogen, USA) according to the manufacturer’s protocol. The cDNA was synthesized using Primescript RT Master Kit (Takara, Japan). Level of viral RNA was determined by performing qRT-PCR analysis using SYBR premix Ex Taq II kit (Takara) according to the instructions. The primer sequences used for the Zika virus genes are 5’-[…]-3’ (forward) and 5’-[…]-3’ (reverse). For quantification, the 2^−ΔΔCt method was used to calculate the relative RNA levels against GAPDH.

Data set [9] deals with ZIKV. The experiment in a line: western blot of ZIKV NS3 expression in infected Vero E6 cells. The class given is cell-based, Zika virus. As to conditions: dose-dependent. How it is done:
as §1, §2

In data set [10] the test system is ZIKV. The experiment in a line: time-of-drug-addition assay (qRT-PCR, Vero E6). Type of data set: cell-based, Zika virus. As to conditions: ZP10 25 μM or antibody 0.1 μg/ml, Vero E6, 24 hpi. How it is done: For the pre-treatment group, Vero E6 cells were seeded 12-well plates (2.5×10^5 cells/well). […] Next, Vero E6 cells were washed with PBS once before the addition of mixture. The 600 μl mixture was added into cells for 1 h at 4°C. […] Infected cells were collected at 24 hpi. The cell lysate was collected for viral RNA copies measurement using qRT-PCR. DMSO was included as negative control. The experiments were performed in triplicate and repeated twice for confirmation.

The target in data set [11] is viral proteinase NS2B/3. Also on record: method as in Constant et al., 2018. As to conditions: ref Constant et al., 2018; read-out: IC50 of enzymatic activity of the viral proteinase; cited from earlier work.
For data set [12], the system named is dengue virus. Also on record: method as in Constant et al., 2018. Particulars: ref Constant et al., 2018; read-out: EC50 of inhibiting viral growth; cited from earlier work.
The test system of data set [13] is CCCC[C@H](NC(=O)c1ccccc1)C(=O)N[C@@H](CCCCN)C(=O)N[C@@H](CCCCN)C(=O)N[C@@H](CCCNC(=N)N)C(=O)Nc1ccc2c(C)cc(=O)oc2c1. The data set is described as follows: purified protein, by the assay type. Particulars: other: substrate 5 to 320 µM, 150 nM protease, 37 °C, pH 7.5.
Description: Proteolytic activity of NS2B-NS3 protease was measured using benzoyl-norleucine-lysine-lysine-arginine 7-amino-4-methylcoumarine (Bz-nKKR-AMC). Bz-nKKR-AMC substrate with starting concentration of 300 μM was serially diluted two times in reaction buffer (50 mM Tris-HCl, pH 7.5, 150 mM NaCl) and added to 96-well black plate (Costar, USA) with 150 nM protein diluted in the same buffer. For kinetics measurements, fluorescence readings were measured at 30 s interval for 5 min using Enspire (Perkin Elmer) at excitation wavelength (λex) at 360 nm and emission wavelength (λem) at 460 nm. Assays were carried out as triplicates at 37 °C. Michaelis-Menten constant (Km) was calculated by graphpad prism5.0.

As to merbromin [ZP1], in data set [1], the 50% inhibitory concentration (IC50) came out at 9.18 µM. Besides, in data set [2], the “binding to ZIKVpro in Octet assay” value was “direct binding” and the “Response (Octet binding assay)” value is recorded as 1.0863.
Turning to `O=c1c(O)c(-c2cc(O)c(O)c(O)c2)oc2cc(O)cc(O)c12` [Myricetin, myricetin], the concentration for half-maximal inhibition (IC50) in [1] is 48.7 µM; in data set [3] (ref Lim et al.) it was 22 µM; in [3] (ref Roy et al.) it was 1.3 µM.
With `O=c1cc(-c2ccc(O)cc2)oc2cc(O)cc(O)c12` [Apigenin], in data set [3] (ref Roy et al.), the 50% inhibitory concentration (IC50) is 56.3 µM.
Consider `O=C(OC1Cc2c(O)cc(O)cc2OC1c1cc(O)c(=O)c2c(O)c(O)cc(C3Oc4cc(O)cc(O)c4CC3OC(=O)c3cc(O)c(O)c(O)c3)c2c1)c1cc(O)c(O)c(O)c1` (stereo not shown) [ZP10, theaflavin-3,3’-digallate], for which, in data set [4], the “cleavage processing of polyprotein precursor (PP)” value is “impaired cleavage processing of PP”. The “viral protein expression (NS3 and envelope)” value in [5] is on record as “considerably reduces”. For the same compound, the “ZIKV-induced CPE (cell morphology)” value in data set [6] (72 hpi, ZP10 6.25 µM to 25.0 µM) is reported as “attenuated to a large extent”. In addition, the concentration for a half-maximal effect (EC50) in data set [6] (Zika virus, Vero C1008, MOI 0.05, CCK-8 read-out, read-out: EC50 of inhibition of ZIKV replication (CPE protection)) was 7.65 µM. Moreover, in data set [7], the “cytotoxicity (cell viability, CCK-8)” value is “minor cytotoxicity up to 40 μM; also recorded: low cytotoxicity”. Also, in [8], the “viral RNA copy numbers” value is recorded as “markedly reduced”. Besides, in [9], the NS3 protein expression entry is on record as “markedly reduced”. For the same compound, the “effect on ZIKV entry / replication when added before or after virus adsorption (0–1 hpi)” value in data set [10] is “no effect of ZP10 on ZIKV entry”.
For the compound `O=C1c2c(O)ccc([N+](=O)[O-])c2C(=O)c2c([N+](=O)[O-])ccc(O)c21` [ARDP006], the IC50 in data set [11] is 432 µM. For the same compound, the EC50 in [12] is 4.2 µM.
For `CCCCCCCCCCCCCc1cccc(O)c1C(=O)O` [ZP9], in [1], it took 1.42 µM to reach half-maximal inhibition (IC50) and the inhibition at 20 µM is 82.2%. In [2], the “Response (Octet binding assay)” value was -0.0005.
Take `Cc1cc2c(C(C)C)c(O)c(O)c(C=O)c2c(O)c1-c1c(C)cc2c(C(C)C)c(O)c(O)c(C=O)c2c1O` [ZP4]: the inhibition at 20 µM in data set [1] was found to be 59.7%. Also, the “Response (Octet binding assay)” value in [2] was -0.046.
In the case of `O=C(OC[C@H]1O[C@@H](OC(=O)c2cc(O)c(O)c(OC(=O)c3cc(O)c(O)c(O)c3)c2)[C@H](OC(=O)c2cc(O)c(O)c(OC(=O)c3cc(O)c(O)c(O)c3)c2)[C@@H](OC(=O)c2cc(O)c(O)c(OC(=O)c3cc(O)c(O)c(O)c3)c2)[C@@H]1OC(=O)c1cc(O)c(O)c(OC(=O)c2cc(O)c(O)c(O)c2)c1)c1cc(O)c(O)c(OC(=O)c2cc(O)c(O)c(O)c2)c1` [ZP3, tannic acid], in data set [2], the “binding to ZIKVpro in Octet assay” value is reported as “direct binding” and the “Response (Octet binding assay)” value turned out to be 0.1091.
In the case of “ZIKV NS2B-NS3 protease (ZIKVpro) (Zika virus ZIKV/H. sapiens/FrenchPolynesia/10087PF/2013)”, in [13], the Km was 30.51 µM.
